Reference: US20130178463A1, “ENHANCED TRANSBUCCAL DRUG DELIVERY SYSTEM AND COMPOSITIONS” (Rutgers, The State University of New Jersey, priority 2010, published 2013)
Structures can show the parent of a compound that is named as a salt. Marks after values point to notes of the source that are not given here. Values belong to the compound of their own block, whether it stands above or below them.

Tests used:
[1] = Histological study of buccal tissue (H&E, light microscopy); set-up: species or system porcine; conditions: after passive permeation (FIG. 6); light micrographs 40×
[2] = In vitro transbuccal permeation of 0.5% ODAN.HCl gel with iontophoresis and/or chemical enhancers (Franz diffusion cells)
[3] = In vitro transbuccal permeation of LHCl, NHT and DHCl gels (Franz diffusion cells); conditions: for Q8 / Flux: Transbuccal
[4] = In vitro transdermal permeation of LHCl, NHT and DHCl gels (Franz diffusion cells); conditions: for enhancement effect on transdermal delivery of NHT / enhancement effect on transdermal delivery of LHCl / enhancement effect on transdermal delivery of DHCl: in words, 1 hr. enhancer pretreatment, compared to control; for Flux / Q8: Transdermal
[5] = Physicochemical properties stated in the description; conditions: in words; reason for preparing solutions in PG only
[6] = in words; drug description; cited from earlier work
[7] = Stage II after 8 h iontophoresis 0.2 mA
[8] = in words, 1 hr. enhancer pretreatment, compared to control
[9] = Control (untreated passive), 8 h (Tables 19-21)
[10] = iontophoresis 0.3 mA for 8 h (Tables 19-21)
[11] = iontophoresis 0.3 mA for 8 h, listed as nicotine hydrogen tartrate, tartrate
[12] = iontophoresis 0.3 mA for 8 h, tartrate

- morphology of buccal tissue compared to untreated [1]: no major morphological changes
- Q8 ([2]; 0.5% ODAN.HCl gel, Stage I, Control (passive)): 25.5 ± 5.1 µg/cm²
- Flux ([2]; 0.5% ODAN.HCl gel, Stage I, iontophoresis 0.1 mA): 10.6 ± 4.5^b μg/cm^2/h
- Flux ([2]; 0.5% ODAN.HCl gel, Stage I, iontophoresis 0.2 mA): 16.5 ± 6.5^b μg/cm^2/h
- Flux ([2]; 0.5% ODAN.HCl gel, Stage I, iontophoresis 0.3 mA): 22.8 ± 4.6^b μg/cm^2/h
- ER ([2]; Stage I, Control (reference)): 1
- Q8 ([2]; Stage I, iontophoresis 0.1 mA): 83.3 ± 33.5 µg/cm²
- ER ([2]; Stage I, iontophoresis 0.1 mA, flux vs control): 3.3
- Q8 ([2]; Stage I, iontophoresis 0.2 mA): 133 ± 50.1 µg/cm²
- ER ([2]; Stage I, iontophoresis 0.2 mA, flux vs control): 5.2
- Q8 ([2]; Stage I, iontophoresis 0.3 mA): 190 ± 42.7 µg/cm²
- ER ([2]; Stage I, iontophoresis 0.3 mA, flux vs control): 7.1
- Flux ([2]; Stage II (8-24 h, passive) after 8 h iontophoresis 0.1 mA): 13.7 ± 4.3^b μg/cm^2/h
- Q24 ([2]; Stage II after 8 h iontophoresis 0.1 mA): 297 ± 90.1 µg/cm²
- ER ([2]; Stage II after 8 h iontophoresis 0.1 mA, flux vs control): 2.8
- Flux [2, 7]: 12.7 ± 5.3^b μg/cm^2/h
- Q24 [2, 7]: 337 ± 130 µg/cm²
- ER ([2]; Stage II after 8 h iontophoresis 0.2 mA, flux vs control): 2.6
- Q24 ([2]; Stage II after 8 h iontophoresis 0.3 mA): 380 ± 68.1 µg/cm²
- ER ([2]; Stage II after 8 h iontophoresis 0.3 mA, flux vs control): 2.4
- Flux ([2]; Stage II after 8 h iontophoresis 0.3 mA, listed as ODAN.HCl, monohydrochloride, dihydrate): 11.9 μg/cm^2/h
- Flux ([2]; Stage II after 8 h iontophoresis 0.3 mA, monohydrochloride, dihydrate): 11.9 ± 2.3^b μg/cm^2/h
- Q24 ([2]; Stage II, Control (passive)): 105 ± 22.8 µg/cm²
- ER ([2]; Stage II, Control (reference)): 1
SMILES: Cc1nccn1CC1CCc2c(c3ccccc3n2C)C1=O (racemic) [ODAN•HCl, (±) 1,2,3,9-tetrahydro-9-methyl-3-[(2-methyl-1H-imidazol-1-yl)methyl]-4H-carbazol-4-one, monohydrochloride, dihydrate]

- enhancement effect on transbuccal delivery of NHT [3, 8]: no enhancement effect
- enhancement effect on transdermal delivery of NHT [4]: no enhancement effect
SMILES: CCCCCCCCCCCCN1CCCCCC1=O [Azone, 1-Dodecylazacycloheptan-2-one]

- aqueous solubility [5]: low aqueous solubilities
- enhancement effect on transbuccal delivery of LHCl [3, 8]: enhanced
- enhancement effect on transbuccal delivery of NHT [3, 8]: no enhancement effect
- enhancement effect on transdermal delivery of LHCl [4]: enhanced
- enhancement effect on transdermal delivery of NHT [4]: no enhancement effect
SMILES: CS(C)=NC(=O)c1ccc(Br)cc1 [Br-iminosulfurane]

SMILES: CCCCCCCCCCCCOC(=O)C(C)N(C)C (stereo not shown) [DDAIP, dodecyl 2-(N,N dimethylamino) propionate]
- aqueous solubility [5]: low aqueous solubilities
- effectiveness in enhancing ODAN.HCl permeability across porcine buccal tissues ([2]; in words, summary of Example 6): only marginally effective
- enhancement effect on transbuccal delivery of DHCl [3, 8]: had enhancement effect
- enhancement effect on transbuccal delivery of LHCl [3, 8]: had enhancement effect
- enhancement effect on transdermal delivery of DHCl [4]: had enhancement effect
- enhancement effect on transdermal delivery of LHCl [4]: had enhancement effect
- enhancement effect on transdermal delivery of NHT [4]: no enhancement effect

SMILES: CCCCCCCCCCCCOC(=O)C(C)N(C)C.Cl (stereo not shown) [DDAIP.HCl, dodecyl-2-N,N-dimethylaminopropionate hydrochloride]
- effect on viability of EpiOral tissue compared to water (EpiOral™ tissue): did not reduce the viability
- enhancement effect on transdermal delivery of DHCl [4]: no enhancement effect
- enhancement effect on transdermal delivery of LHCl [4]: no enhancement effect
- enhancement effect on transdermal delivery of NHT [4]: no enhancement effect

SMILES: COc1ccc([C@@H]2Sc3ccccc3N(CCN(C)C)C(=O)[C@@H]2OC(C)=O)cc1 [Diltiazem HCl, 1,5-Benzothiazepin-4(5H) one, 3-(acetyloxy)-5-[2-(dimethylamino)ethyl]-2,3-dihyro-2-(4-methoxyphenyl)-, monohydrochloride, (+)-cis-]
- solubility [6]: soluble in water, methanol, and chloroform

SMILES: CCN(CC)CC(=O)Nc1c(C)cccc1C [Lidocaine HCl, 2-(Diethylamino)-2′,6′-acetoxylidide mono-hydrochloride, monohydrate]
- Q8 [3, 9]: 345.6 ± 74.3^ μg/cm^2
- Flux ([3]; Control (untreated passive), 8 h, […] LHCl, 2% NHT or 2% DHCl gel, listed as lidocaine HCl, mono-hydrochloride, monohydrate): 44.7 ± 9.6 μg/cm^2*h
- Flux ([3]; iontophoresis 0.1 mA for 8 h): 137.1 ± 13.1^b μg/cm^2*h
- Q8 [3, 10]: 1910.2 ± 454.7^b μg/cm^2
- Flux ([3]; iontophoresis 0.3 mA for 8 h, listed as lidocaine HCl, mono-hydrochloride, monohydrate): 241.7 ± 60.5^c μg/cm^2*h
- Flux ([3]; iontophoresis 0.3 mA for 8 h, mono-hydrochloride, monohydrate): 241.7 ± 60.5^b μg/cm^2*h

SMILES: CN1CCCC1c1cccnc1.O=C(O)C(O)C(O)C(=O)O (stereo not shown) [Nicotine Hydrogen Tartrate, Nicotine hydrogen tartrate]
- Q8 [3, 9]: 6.9 ± 2.6^ μg/cm^2
- Flux ([3]; Control (untreated passive), 8 h, […] LHCl, 2% NHT or 2% DHCl gel, listed as nicotine hydrogen tartrate, tartrate): 0.9 ± 0.4 μg/cm^2*h
- Flux ([3]; iontophoresis 0.1 mA for 8 h): 17.6 ± 6.9^b μg/cm^2*h
- Q8 [3, 10]: 629.5 ± 276.8^b μg/cm^2
- Flux [3, 11]: 81.7 ± 35.9^c μg/cm^2*h
- Flux [3, 12]: 81.7 ± 35.9^b μg/cm^2*h
- Flux ([4]; Control (untreated passive), 8 h, […] LHCl, 2% NHT or 2% DHCl gel): 1.3 ± 1.9 μg/cm^2*h
- Q8 ([4]; Control (untreated passive), 8 h, tartrate): 9.9 ± 14.6 μg/cm^2
- Flux ([4]; iontophoresis 0.1 mA for 8 h): 56.1 ± 11.4^b μg/cm^2*h
- Q8 ([4]; iontophoresis 0.1 mA for 8 h): 433.2 ± 85.4^b μg/cm^2
- Flux [4, 11]: 138.4 ± 72.3^c μg/cm^2*h
- Q8 [4, 11]: 1326.6 ± 186.2^c μg/cm^2
- Flux [4, 12]: 138.4 ± 72.3^b μg/cm^2*h
- Q8 [4, 12]: 1326.6 ± 186.2^b μg/cm^2
- solubility [6]: soluble in water
